Measured values as given in ChEMBL document CHEMBL1201862, “PubChem BioAssay data set” (2004).
Calls of active or inactive are those of the source.

Experiments:
[1] = ADAM10 inhibitors, peptide cleavage, dose response, biochemical, QFRET (AID 743254);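 further: ADAM10 enzyme with the DM2 quenched FRET peptide as substrate; EDANS fluorescence gain as the protease cuts the substrate; inhibitor potency against ADAM10 proteolytic activity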
[2] = target: Nonstructural protein 1 (Influenza A virus, UniProt Q194T2); format: functional, Influenza A virus (A/California/07/2009(H1N1))
Nonstructural protein 1, sequence (Q194T2 whole entry, the tested form may be a part): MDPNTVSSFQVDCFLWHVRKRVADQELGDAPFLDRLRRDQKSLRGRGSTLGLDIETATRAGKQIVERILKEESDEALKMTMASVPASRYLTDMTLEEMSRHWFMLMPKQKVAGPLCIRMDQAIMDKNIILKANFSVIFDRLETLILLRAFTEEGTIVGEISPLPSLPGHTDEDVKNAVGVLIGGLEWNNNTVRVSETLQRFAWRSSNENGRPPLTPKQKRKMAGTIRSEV

[3] = target: Disintegrin and metalloproteinase domain-containing protein 17 (Homo sapiens, UniProt P78536); assay: ADAM17 protease inhibitors, dose response, counter-screen for ADAM10 exosite inhibitor project, biochemical, quenched FRET substrate (AID 743253)
[4] = target: Matrix metalloproteinase-14 (Homo sapiens, UniProt P50281); assay: Dose Response confirmation of uHTS hits for a small molecule inhibitors of MT1-MMP activation in a fluorescence assay set 2.; format: functional
[5] = C. albicans growth with fluconazole, confirmation, fluorescence, retest (AID 2467); format: functional, cell-based
[6] = NIH-3T3 fibroblast cytotoxicity, dose response, cytotoxicity control, cell-based, fluorescence, Alamar Blue, secondary assay (AID 2327); format: functional;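 further: NIH-3T3 mouse fibroblasts cultured with fluconazole at 8 µg/mL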
[7] = system: A549; assay: A549 cell toxicity, dose response, cytotoxicity control, plate reader, cherry-pick samples (AID 687028); format: functional, cell-based; details: Homo sapiens
[8] = target: T1, DNA repair and recombination protein RAD54-like (Homo sapiens, UniProt Q92698); assay: inhibitors of human RAD54 branch migration, confirmation, biochemical, fluorescence, cherry-picked samples, dose series (AID 651657); format: functional
T1 sequence (Q92698 whole entry): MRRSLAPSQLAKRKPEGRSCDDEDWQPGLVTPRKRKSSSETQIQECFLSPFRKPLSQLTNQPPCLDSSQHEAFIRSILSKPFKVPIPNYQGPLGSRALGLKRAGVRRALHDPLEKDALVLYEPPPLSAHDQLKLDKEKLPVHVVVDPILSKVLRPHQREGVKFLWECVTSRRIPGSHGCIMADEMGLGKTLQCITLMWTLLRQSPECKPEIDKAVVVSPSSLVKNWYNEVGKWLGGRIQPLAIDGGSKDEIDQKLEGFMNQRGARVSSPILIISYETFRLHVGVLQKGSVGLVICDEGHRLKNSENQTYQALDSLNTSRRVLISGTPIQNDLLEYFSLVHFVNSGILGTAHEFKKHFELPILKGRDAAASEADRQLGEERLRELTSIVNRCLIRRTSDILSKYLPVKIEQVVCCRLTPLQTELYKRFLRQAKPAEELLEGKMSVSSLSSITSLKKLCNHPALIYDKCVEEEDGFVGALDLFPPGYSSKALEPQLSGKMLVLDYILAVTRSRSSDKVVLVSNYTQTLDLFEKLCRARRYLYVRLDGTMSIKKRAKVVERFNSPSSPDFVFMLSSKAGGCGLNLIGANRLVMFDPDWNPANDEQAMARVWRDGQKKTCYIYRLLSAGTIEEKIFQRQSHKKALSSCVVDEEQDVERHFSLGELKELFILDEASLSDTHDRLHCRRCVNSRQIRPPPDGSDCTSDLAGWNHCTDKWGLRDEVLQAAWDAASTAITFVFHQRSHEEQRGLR

[9] = target: T2, DNA repair protein RAD52 homolog (Homo sapiens, UniProt P43351); format: functional, biochemical
T2 sequence (P43351 whole entry): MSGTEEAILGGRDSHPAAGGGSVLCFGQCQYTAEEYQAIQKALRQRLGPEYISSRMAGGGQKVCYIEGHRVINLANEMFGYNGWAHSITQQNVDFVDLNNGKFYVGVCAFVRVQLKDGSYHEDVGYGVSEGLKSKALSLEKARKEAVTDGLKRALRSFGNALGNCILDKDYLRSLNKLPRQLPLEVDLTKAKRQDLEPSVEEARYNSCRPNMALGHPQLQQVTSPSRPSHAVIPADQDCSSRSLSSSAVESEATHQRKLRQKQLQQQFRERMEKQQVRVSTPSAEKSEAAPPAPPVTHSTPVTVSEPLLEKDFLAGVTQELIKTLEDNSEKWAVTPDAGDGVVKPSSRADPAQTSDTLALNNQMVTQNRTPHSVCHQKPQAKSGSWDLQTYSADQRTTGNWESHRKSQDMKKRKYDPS

[10] = MDA-MB-231 cell growth inhibition, dose response, cytotoxicity control for RAD54 inhibitor project, CellTiter-Glo luminescence, cherry-pick (AID 651692); format: functional, cell-based
[11] = target: Beta-galactosidase (Escherichia coli, UniProt Q8VNN2); assay: Dose response counterscreen for EBI2 assay utilizing the enzyme, b-galactosidase.; format: functional
[12] = target: Arf-GAP with SH3 domain, ANK repeat and PH domain-containing protein 1 (Homo sapiens, UniProt Q9ULH1); format: functional;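 further: biochemical fluorescence polarization dose–response screen measuring inhibition of ASAP1; ASAP1 GAP domain stimulating GTP hydrolysis by truncated human ARF1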
Arf-GAP with SH3 domain, ANK repeat and PH domain-containing protein 1, sequence (Q9ULH1 whole entry, the tested form may be a part): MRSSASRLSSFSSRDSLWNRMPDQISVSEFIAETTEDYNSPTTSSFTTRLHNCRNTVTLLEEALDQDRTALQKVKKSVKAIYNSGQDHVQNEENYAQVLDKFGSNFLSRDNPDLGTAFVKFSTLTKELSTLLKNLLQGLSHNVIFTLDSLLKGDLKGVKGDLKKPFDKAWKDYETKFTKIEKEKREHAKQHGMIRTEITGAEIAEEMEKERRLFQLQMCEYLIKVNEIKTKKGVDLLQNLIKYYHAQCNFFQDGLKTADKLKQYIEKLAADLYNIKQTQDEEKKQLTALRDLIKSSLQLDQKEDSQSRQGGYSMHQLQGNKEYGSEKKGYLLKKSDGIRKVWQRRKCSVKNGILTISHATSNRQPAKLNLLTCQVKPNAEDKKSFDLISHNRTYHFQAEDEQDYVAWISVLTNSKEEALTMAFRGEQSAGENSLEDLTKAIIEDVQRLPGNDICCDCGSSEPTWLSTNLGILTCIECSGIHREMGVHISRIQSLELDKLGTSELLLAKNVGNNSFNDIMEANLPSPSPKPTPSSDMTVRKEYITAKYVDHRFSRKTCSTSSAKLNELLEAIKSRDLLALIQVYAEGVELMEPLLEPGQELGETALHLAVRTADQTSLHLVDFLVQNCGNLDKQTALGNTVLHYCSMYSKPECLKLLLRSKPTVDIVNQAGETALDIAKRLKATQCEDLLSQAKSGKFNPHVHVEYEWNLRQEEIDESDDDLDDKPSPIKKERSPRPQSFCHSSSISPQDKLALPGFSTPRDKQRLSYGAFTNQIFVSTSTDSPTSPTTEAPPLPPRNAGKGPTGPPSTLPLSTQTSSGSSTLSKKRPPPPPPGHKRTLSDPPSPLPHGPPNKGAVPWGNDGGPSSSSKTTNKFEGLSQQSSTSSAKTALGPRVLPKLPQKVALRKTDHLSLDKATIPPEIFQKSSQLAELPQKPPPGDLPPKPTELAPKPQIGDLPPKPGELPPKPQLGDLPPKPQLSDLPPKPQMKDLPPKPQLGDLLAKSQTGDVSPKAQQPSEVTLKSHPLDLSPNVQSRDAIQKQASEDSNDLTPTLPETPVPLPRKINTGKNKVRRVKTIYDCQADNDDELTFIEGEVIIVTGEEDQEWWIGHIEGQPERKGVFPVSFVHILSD

[13] = system: Vero; assay: cells; format: functional; details: Chlorocebus sabaeus
[14] = target: SWI/SNF-related matrix-associated actin-dependent regulator of chromatin subfamily A member 2 (Homo sapiens, UniProt P51531); assay: Luminescence-based cell-based high throughput dose response assay to identify activators of the function of SWI/SNF related, matrix associated, actin dependent regulator of chromatin, subfamily a, member 2 (SMARCA2, BRM).; format: functional
[15] = Counterscreen for activators of the function of SWI/SNF related, matrix associated, actin dependent regulator of chromatin, subfamily a, member 2 (SMARCA2, BRM): Luminescence-based cell-based high throughput dose response assay to identify non-selective compounds using the VP16 reporter assay.; format: functional
[16] = target: T3, Probable nicotinate-nucleotide adenylyltransferase (Staphylococcus aureus (strain N315), UniProt P65502); format: functional, Staphylococcus aureus subsp. aureus N315;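 on IC50 Mean: confirmatory dose-response retesting of NadD inhibitor hits first found in an ultra-high-throughput screen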
T3 sequence (P65502 whole entry): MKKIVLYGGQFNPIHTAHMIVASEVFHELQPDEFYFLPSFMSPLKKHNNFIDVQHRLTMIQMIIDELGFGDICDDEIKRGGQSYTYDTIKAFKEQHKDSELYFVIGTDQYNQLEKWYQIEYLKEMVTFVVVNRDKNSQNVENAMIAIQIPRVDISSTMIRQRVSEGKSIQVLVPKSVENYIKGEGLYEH

[17] = target: T3, Probable nicotinate-nucleotide adenylyltransferase; format: functional, Staphylococcus aureus subsp. aureus N315; details: read-out: IC50_Mean
[18] = target: Genome polyprotein (dengue virus type 2, UniProt P29990); assay: Dengue-2 NS5 methyltransferase inhibitors, primary screen, biochemical, confirmation dose response (AID 588689); format: functional
Genome polyprotein, sequence (P29990 2492-3391 limits assumed): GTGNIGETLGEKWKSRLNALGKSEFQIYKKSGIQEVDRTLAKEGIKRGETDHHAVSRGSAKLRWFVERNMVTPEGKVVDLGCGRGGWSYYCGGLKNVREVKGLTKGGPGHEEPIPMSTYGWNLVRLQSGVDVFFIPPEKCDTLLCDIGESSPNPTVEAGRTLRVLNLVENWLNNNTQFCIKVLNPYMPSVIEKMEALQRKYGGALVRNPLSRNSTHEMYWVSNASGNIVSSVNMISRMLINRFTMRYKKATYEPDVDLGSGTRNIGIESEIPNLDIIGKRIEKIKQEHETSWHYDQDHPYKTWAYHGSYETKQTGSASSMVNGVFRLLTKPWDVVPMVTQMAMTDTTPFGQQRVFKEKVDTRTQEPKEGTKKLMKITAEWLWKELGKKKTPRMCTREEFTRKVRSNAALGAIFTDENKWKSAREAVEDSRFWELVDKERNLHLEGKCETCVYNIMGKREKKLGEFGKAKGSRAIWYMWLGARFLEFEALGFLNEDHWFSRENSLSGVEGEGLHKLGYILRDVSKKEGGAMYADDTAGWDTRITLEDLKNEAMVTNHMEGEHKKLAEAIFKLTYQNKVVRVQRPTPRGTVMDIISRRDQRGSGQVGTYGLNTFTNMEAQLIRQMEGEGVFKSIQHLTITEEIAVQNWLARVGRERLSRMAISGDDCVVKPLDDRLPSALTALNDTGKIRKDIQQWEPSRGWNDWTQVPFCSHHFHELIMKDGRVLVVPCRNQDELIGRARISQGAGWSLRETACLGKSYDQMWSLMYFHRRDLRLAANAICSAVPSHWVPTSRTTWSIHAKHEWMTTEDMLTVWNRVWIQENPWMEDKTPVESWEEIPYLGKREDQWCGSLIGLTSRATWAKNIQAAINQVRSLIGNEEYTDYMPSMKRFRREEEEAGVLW

[19] = target: T4, Tyrosine-protein phosphatase non-receptor type 22 (Homo sapiens, UniProt Q9Y2R2); assay: PTPN22 phosphatase inhibition, dose response, selectivity assay for STEP inhibitor project, biochemical (AID 624241); format: functional
T4 sequence (Q9Y2R2 whole entry): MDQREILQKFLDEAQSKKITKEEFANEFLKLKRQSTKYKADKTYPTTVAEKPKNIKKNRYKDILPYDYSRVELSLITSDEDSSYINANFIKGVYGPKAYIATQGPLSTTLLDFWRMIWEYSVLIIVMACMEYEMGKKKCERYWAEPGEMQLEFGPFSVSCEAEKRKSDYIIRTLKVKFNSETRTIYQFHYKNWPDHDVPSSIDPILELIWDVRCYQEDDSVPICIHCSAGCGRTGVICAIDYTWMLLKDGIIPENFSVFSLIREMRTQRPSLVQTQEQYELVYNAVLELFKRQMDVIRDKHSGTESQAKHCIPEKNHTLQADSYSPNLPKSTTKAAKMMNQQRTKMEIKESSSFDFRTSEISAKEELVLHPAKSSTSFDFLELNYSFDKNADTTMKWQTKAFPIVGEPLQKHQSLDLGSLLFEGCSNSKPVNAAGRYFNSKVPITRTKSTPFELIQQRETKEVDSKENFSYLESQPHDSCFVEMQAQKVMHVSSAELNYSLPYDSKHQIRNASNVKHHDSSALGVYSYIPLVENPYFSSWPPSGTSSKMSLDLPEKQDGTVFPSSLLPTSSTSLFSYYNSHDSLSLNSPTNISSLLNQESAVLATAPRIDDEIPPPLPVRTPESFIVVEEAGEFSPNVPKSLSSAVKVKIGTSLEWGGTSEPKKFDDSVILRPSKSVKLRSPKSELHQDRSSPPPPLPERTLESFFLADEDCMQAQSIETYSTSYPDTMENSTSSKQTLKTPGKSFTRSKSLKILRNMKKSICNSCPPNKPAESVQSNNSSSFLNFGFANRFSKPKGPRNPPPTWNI

[20] = target: T5, Carboxy-terminal domain RNA polymerase II polypeptide A small phosphatase 1 (Homo sapiens, UniProt Q9GZU7); assay: inhibitors of CTDSP1, concentration-response testing, biochemical assay, absorbance-based, actives from ultra-high-throughput screening (AID 540297); format: functional
T5 sequence (Q9GZU7 whole entry): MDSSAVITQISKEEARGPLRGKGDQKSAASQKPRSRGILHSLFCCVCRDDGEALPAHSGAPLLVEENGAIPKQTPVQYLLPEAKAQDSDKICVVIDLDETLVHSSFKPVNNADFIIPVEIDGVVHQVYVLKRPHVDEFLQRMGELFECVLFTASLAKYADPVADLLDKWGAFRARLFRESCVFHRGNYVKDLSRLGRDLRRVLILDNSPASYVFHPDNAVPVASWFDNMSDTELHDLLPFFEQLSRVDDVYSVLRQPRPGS

[21] = target: Polyadenylate-binding protein 1 (Homo sapiens, UniProt P11940); assay: PABP poly(A) RNA binding inhibitors, primary screen, biochemical, fluorescence polarization, uHTS (AID 2014)
[22] = target: Tyrosine-protein phosphatase non-receptor type 5 (Homo sapiens, UniProt P54829); assay: STEP phosphatase inhibitors, confirmation, biochemical, fluorescence intensity, uHTS hits (AID 602372); format: functional; details: read-out: IC50_Mean
Tyrosine-protein phosphatase non-receptor type 5, sequence (P54829 whole entry): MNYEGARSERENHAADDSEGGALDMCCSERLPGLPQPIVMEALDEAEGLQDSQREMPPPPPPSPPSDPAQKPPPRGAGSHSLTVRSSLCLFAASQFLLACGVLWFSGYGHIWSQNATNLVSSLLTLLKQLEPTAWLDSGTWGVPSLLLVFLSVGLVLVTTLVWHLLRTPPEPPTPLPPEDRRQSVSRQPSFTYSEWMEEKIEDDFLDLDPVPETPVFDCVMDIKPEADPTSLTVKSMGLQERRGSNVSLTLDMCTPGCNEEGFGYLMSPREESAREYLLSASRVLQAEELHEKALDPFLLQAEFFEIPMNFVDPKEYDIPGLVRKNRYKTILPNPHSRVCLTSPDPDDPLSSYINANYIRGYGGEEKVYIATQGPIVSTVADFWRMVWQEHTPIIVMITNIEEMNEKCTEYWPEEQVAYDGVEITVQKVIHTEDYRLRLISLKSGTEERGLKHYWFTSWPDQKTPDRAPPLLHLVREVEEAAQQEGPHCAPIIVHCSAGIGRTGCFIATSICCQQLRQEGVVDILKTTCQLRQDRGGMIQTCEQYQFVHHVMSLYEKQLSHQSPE

[23] = target: Eukaryotic translation initiation factor 4H (Homo sapiens, UniProt Q15056); assay: human eIF4H binding inhibitors, primary screen, translation initiation inhibitor project, biochemical, uHTS, fluorescence polarization (AID 2012)
[24] = target: Dual specificity protein phosphatase 3 (Homo sapiens, UniProt P51452); assay: VHR phosphatase inhibition, dose response, selectivity assay for STEP inhibitor project, biochemical (AID 602374); format: functional; details: read-out: IC50_Mean
Dual specificity protein phosphatase 3, sequence (P51452 whole entry): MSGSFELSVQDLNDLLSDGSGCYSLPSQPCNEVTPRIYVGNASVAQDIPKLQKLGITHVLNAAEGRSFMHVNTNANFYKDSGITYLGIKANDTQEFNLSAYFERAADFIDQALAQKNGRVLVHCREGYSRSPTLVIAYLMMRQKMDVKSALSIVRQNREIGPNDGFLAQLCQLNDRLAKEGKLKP

[25] = target: Tyrosine-protein phosphatase non-receptor type 11 (Homo sapiens, UniProt Q06124); assay: SHP2 phosphatase inhibition, dose response, selectivity assay for STEP inhibitor project, biochemical (AID 602367); format: functional; details: read-out: IC50_Mean
Tyrosine-protein phosphatase non-receptor type 11, sequence (Q06124 whole entry): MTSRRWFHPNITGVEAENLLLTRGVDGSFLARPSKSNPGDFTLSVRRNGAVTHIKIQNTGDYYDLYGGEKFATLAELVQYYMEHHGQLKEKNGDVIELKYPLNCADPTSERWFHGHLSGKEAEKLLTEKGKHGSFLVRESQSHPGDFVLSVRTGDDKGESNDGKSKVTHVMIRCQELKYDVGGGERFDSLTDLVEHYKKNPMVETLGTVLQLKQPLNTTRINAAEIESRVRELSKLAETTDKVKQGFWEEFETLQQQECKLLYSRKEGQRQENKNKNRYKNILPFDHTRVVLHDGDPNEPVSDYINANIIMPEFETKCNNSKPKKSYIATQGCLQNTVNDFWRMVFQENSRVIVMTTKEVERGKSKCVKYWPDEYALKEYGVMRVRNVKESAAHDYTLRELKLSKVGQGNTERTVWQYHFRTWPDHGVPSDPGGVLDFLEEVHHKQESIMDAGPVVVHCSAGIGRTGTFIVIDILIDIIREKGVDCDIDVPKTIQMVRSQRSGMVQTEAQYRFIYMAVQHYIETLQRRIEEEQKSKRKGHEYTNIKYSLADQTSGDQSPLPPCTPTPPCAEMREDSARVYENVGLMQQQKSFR

[26] = target: T6, Long-chain-fatty-acid--AMP ligase FadD28 (Mycobacterium tuberculosis, UniProt P9WQ59); assay: Fluorescence polarization aasay to screen for inhibitors that compete for the binding of FadD28 to a bisubstrate Measured in Biochemical System Using Plate Reader - 2147-01_Inhibitor_Dose_CherryPick_Activity.; format: functional, Mycobacterium tuberculosis H37Rv
T6 sequence (P9WQ59 whole entry): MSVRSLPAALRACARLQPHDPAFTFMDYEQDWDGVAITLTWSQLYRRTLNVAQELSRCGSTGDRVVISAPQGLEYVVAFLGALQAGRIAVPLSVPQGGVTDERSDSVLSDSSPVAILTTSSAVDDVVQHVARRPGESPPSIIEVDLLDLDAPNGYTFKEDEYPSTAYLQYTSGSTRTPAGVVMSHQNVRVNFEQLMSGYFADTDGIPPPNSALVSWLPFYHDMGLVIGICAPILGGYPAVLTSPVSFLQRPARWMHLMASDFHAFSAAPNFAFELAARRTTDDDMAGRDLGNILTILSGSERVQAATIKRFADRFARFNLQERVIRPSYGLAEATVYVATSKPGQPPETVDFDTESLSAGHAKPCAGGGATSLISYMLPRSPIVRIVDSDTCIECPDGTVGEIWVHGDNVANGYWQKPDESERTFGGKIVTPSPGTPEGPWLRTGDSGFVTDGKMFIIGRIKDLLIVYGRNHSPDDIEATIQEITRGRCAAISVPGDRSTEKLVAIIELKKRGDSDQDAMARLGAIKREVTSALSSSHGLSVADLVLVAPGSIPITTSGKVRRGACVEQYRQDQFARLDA

[27] = target: Nuclear receptor subfamily 0 group B member 1 (Homo sapiens, UniProt P51843); format: functional, cell-based;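 further: HEK293T cells transfected with SF-1 and DAX-1 plus StAR promoter luciferase reporter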
Nuclear receptor subfamily 0 group B member 1, sequence (P51843 whole entry): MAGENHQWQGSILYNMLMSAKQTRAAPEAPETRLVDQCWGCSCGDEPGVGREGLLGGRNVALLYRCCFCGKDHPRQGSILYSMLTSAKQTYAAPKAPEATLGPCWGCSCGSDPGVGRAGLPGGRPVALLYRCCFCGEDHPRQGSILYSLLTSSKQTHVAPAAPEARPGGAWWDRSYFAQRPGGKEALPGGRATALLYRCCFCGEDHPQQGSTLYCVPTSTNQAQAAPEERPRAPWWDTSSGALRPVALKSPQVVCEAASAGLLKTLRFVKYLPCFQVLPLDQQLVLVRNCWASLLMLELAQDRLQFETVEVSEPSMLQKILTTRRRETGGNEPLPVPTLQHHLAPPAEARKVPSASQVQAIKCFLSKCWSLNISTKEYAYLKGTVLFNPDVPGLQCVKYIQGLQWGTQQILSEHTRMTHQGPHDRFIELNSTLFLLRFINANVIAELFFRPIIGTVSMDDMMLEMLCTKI

[28] = cells; format: functional, cell-based
[29] = target: Botulinum neurotoxin type F (Clostridium botulinum, UniProt P30996); assay: High-throughput multiplex microsphere dose response for inhibitors of toxin protease, specifically Botulinum neurotoxin light chain F protease, compounds from Cherry Pick 02.; format: functional; details: read-out: EC50_MICROM
Botulinum neurotoxin type F, sequence (P30996 1-436 limits assumed): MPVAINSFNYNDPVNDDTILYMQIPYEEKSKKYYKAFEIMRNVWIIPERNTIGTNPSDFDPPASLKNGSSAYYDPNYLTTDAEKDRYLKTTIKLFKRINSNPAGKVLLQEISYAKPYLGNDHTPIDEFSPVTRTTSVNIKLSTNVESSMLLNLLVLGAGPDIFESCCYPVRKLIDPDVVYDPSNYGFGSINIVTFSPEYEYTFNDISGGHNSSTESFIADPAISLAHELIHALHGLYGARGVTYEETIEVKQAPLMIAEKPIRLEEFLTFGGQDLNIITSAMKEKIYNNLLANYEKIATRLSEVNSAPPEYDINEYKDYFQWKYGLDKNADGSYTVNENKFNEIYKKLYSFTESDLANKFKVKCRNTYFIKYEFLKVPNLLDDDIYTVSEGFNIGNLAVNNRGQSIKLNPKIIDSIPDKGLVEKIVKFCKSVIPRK

[30] = system: Vero; assay: Vero cell toxicity, dose response, cytotoxicity control, plate reader, cherry-pick samples (AID 687020); format: functional, cell-based; details: Chlorocebus sabaeus

Nc1nc(-c2ccccc2)c(N=Nc2ccccc2Cl)s1
IC50 [1]: 8.65 µM (active) | IC50 [2]: 9.93 µM (active) | IC50 [3]: > 69.5 µM (inactive) | IC50 [4]: 28 µM (inactive) | EC50 [5]: 4.78 µM (active) | EC50 [6]: > 160 µM (inactive)

Cc1cccc(N=[N+]([O-])c2cccc(C)n2)n1
AC50 [7]: 34.5 µM (active)

COc1ccc(OC)c2sc(N(CCN(C)C)C(=O)c3ccc4ccccc4c3)nc12
AC50 [8]: 58.4 µM (active) | AC50 [9]: 10.7 µM (active) | AC50 [10]: 32.7 µM (active)

Cc1ccc2oc(C(=O)N3CCC(O)(c4ccccc4)CC3)c(C)c2c1
IC50 [11]: > 80 µM (inactive)

COCCn1cnc2c(c1=O)c1nc3ccccc3nc1n2/N=C/c1ccc(OC)c(OC)c1
IC50 [12]: 41.7 µM (inactive) | CC50 [13]: 23.5 µM (active)

Cc1ccc2c(c1)cc(CN(Cc1ccco1)C(=O)N1CCOCC1)c1nnnn12
EC50 [14]: > 91.2 µM (inactive) | EC50 [15]: > 91.2 µM (inactive)

O=C(NNS(=O)(=O)c1ccc2ccccc2c1)c1cc(-c2ccccn2)nc2ccccc12
IC50 [16]: 11.7 µM (active) | IC50 [17]: 28.9 µM (active)

COc1ccc(/C=N/NC2=NC(=O)C(CC(=O)O)S2)cc1OCc1ccc(Cl)cc1Cl (stereo not given)
IC50 [18]: 59.4 µM (active) | IC50 [19]: 33.8 µM (inactive) | IC50 [20]: 4.48 µM (active) | IC50 [21]: 64.3 µM (active) | IC50 [22]: 9.72 µM (active) | IC50 [23]: 14.7 µM (active) | IC50 [24]: 4.79 µM (active) | IC50 [25]: 4.42 µM (active)

CCc1cccc2c(C(=O)CN3C(=O)N(C)C4(CCCCC4)C3=O)c[nH]c12
AC50 [26]: > 100 µM (inactive) | IC50 [27]: > 67.5 µM (inactive) | IC50 [28]: > 67.5 µM (inactive)

Cc1nc2ccc(NC(=O)[C@@H](NC(=O)c3c(F)cccc3F)C(C)C)cc2s1
EC50 [29]: > 20 µM (inactive)

CCNS(=O)(=O)c1ccc(Br)c(C(=O)OC(C)C(=O)NCC2CCCCC2)c1 (stereo not given)
AC50 [30]: 31.7 µM (active)
